Assay results reported in patent US20190314431A1, “Method of Discovery of Potential Bioactive Compounds in Herbals by Regrouping after Chromatography” (priority 2018, published 2019).

Test system: mice initiated with morphine
Test: Anti-opioid addiction effectiveness test of grouped herbal compounds in mice
Assay type: in vivo
Method: Mice will be initiated with morphine at 1 mg/ml for 21 days.
The second test: use separate groups of compounds to test effectiveness in mice. The definition of effective.
1. Ten Mice in Each Group.

## CN1CC[C@]23c4c5ccc(O)c4O[C@H]2[C@@H](O)C=C[C@H]3[C@H]1C5 [Morphine]
3rd test, regrouped compounds of groups 2 and 9
  Effective: Yes
Second test, ten mice in each group, mice initiated with morphine at 1 mg/ml for 21 days
  Effective: Yes
